Values of other authors, collected in patent EP0303681B1 (priority 1987, dated 1988).

SMILES: Sc1ncnc2nc[nH]c12 [6 MP, 6-mercaptopurine]
- solubility in alkaline solutions (alkaline solutions): soluble
- solubility in hot ethanol (hot ethanol): soluble
- solubility in water (water): insoluble
